Values after ≈ are worked out from the molar mass of the structure shown.
System: S. pyogenes iMLS resistante strain
Assay: MIC by broth dilution (NCCLS M7-A2), S. pyogenes iMLS resistant strain
Format: cell-based
Conditions: MIC = concentration showing 90% growth inhibition, tested range 64 to 0.125 μg/ml
Procedure: Final concentration of test substances were in range from 64 to 0.125 μg/ml. MIC levels for all compound were determinated on panel of susceptible and resistant Gram positive bacterial strains (S. aureus, S. pneumoniae and S. pyogenes) and on Gram negative strains (E. coli, H. influenzae, E. faecalis, M. catarrhalis).

Structure (SMILES)	MIC
CCC1OC(=O)C(C)C(OC2CC(C)(OC)C(O)C(C)O2)C(C)C(OC2OC(C)CC(N(C)C)C2O)C(C)(O)CC(C)CN(C(=O)Nc2ccc(S(N)(=O)=O)cc2)C(C)C(O)C1(C)O (centres unmarked) [Example 3, 9-Deoxo-9-dihydro-9a-N-{[4-(aminosulfonyl)phenyl]carbamoyl}-9a-aza-9a-homoerithromycin A]	2 µg/mL (≈ 2.14 µM)
CCC1OC(=O)C(C)C(OC2CC(C)(OC)C(O)C(C)O2)C(C)C(OC2OC(C)CC(N(C)C)C2O)C(C)(O)CC(C)CN(C(=O)Nc2ccc(S(=O)(=O)Nc3ccccc3)cc2)C(C)C(O)C1(C)O (centres unmarked) [Example 4, 9-Deoxo-9-dihydro-9a-N-{N′-[4-(phenylaminosulfonyl)phenyl]carbamoyl}-9a-aza-9a-homoerithromycin A]	2 µg/mL (≈ 1.98 µM)

From US7365056B2, “Substituted 9a-N-(N′-(sulfonyl)phenylcarbamoyl)derivatives of 9-deoxo-9-dihydro-9a-aza-9a-homoerithomycin A and 5-0-desosaminyl-9-deoxo-9-dihydro-9-a-aza-9a-homoerithronolide A” (GlaxoSmithKline istrazivacki centar Zagreb d.o, priority 2002, dated 2008)
